Source: US20070004760A1, “Fungicide mixtures for the control of rice pathogens” (priority 2003, published 2007)
Values joined by “and” are separate entries in the source; they are usually repeats but may differ in a detail not shown here. Identical values can stand only once. Like-named read-outs stand apart in the source and are kept apart here.

Assays:
Pyricularia oryzae = assay type: in vivo; settings: individual active compound, rice 'Tai-Nong 67', protective, 6 days, untreated control 60% infection
Cochliobolus miyabeanus = assay: Activity against brown spot of rice caused by Cochliobolus miyabeanus, protective application; assay type: in vivo

CC1CCN(c2c(-c3c(F)cccc3Cl)c(Cl)nc3ncnn23)CC1 [Comparison A]
Efficacy in % of the untreated control (Pyricularia oryzae; 16 ppm in the spray liquor): 59%

C[C@H](Nc1c(-c2c(F)cc(F)cc2F)c(Cl)nc2ncnn12)C(F)(F)F [Comparison B]
Efficacy in % of the untreated control (Pyricularia oryzae; 16 ppm in the spray liquor): 67%

CC1CCN(c2c(-c3c(F)cc(F)cc3F)c(Cl)nc3ncnn23)CC1 [I, 5-chloro-7-(4-methylpiperidin-1-yl)-6-(2,4,6-trifluorophenyl)-[1,2,4]triazolo[1,5-a]pyrimidine]
Efficacy in % of the untreated control (Pyricularia oryzae; 16 ppm in the spray liquor): 67%
Efficacy in % of the untreated control (Cochliobolus miyabeanus; individual active compound, 4 ppm in the spray liquor, rice 'Tai-Nong 67', protective, six days, untreated control 90% infection): 33%
Efficacy in % of the untreated control (Cochliobolus miyabeanus; individual active compound, 16 ppm in the spray liquor, rice 'Tai-Nong 67', protective, six days, untreated control 90% infection): 33% and 56%

CO/N=C(/C(=O)OC)c1ccccc1CO/N=C(\C)c1cccc(C(F)(F)F)c1 [II (trifloxystrobin), methyl (E)-methoxyimino-{(E)-α-[1-(α,α,α-trifluoro-m-tolyl)ethylideneaminooxy]o-tolyl}acetate]
Efficacy in % of the untreated control (Pyricularia oryzae; 4 ppm in the spray liquor): 2%
Efficacy in % of the untreated control (Pyricularia oryzae; 16 ppm in the spray liquor): 2%
Efficacy in % of the untreated control (Cochliobolus miyabeanus; in vivo): 0%
